From US20080161315A1, “INDOLES” (priority 2006, published 2008)
Where a name gives a salt, the structure may show the parent alone.

Molecular target: T1, human V1a receptor (Homo sapiens, UniProt P37288)
T1 construct: expressed in transfected cells; host or cells: HEK293 cells, transiently transfected; membrane preparation
Experiment: human V1a receptor binding studies (3H-Vasopressin, SPA beads)
Conditions: membranes of HEK293 cells transiently transfected with human V1a receptor, Ki calculated by Cheng-Prussoff equation, read-out: pKi hV1a (converted)
Method: The human V1a receptor was cloned by RT-PCR from total human liver RNA. The coding sequence was subcloned in an expression vector after sequencing to confirm the identity of the amplified sequence. […] Cell membranes were prepared from HEK293 cells transiently transfected with the expression vector and grown in 20 liter fermenters with the following protocol.
50 g of cells were resuspended in 30 ml freshly prepared ice cold Lysis buffer (50 mM HEPES, 1 mM EDTA, 10 mM MgCl2 adjusted to pH=7.4+complete cocktail of protease inhibitor (Roche Diagnostics)); homogenized with Polytron for 1 min; and sonicated on ice for 2×2 minutes at 80% intensity (Vibracell sonicator). The preparation was centrifuged 20 min at 500 g at 4° C., the pellet was discarded and the supernatant centrifuged 1 hour at 43,000 g at 4° C. (19,000 rpm). The pellet was resuspended in 12.5 ml Lysis buffer+12.5 ml Sucrose 20% and homogenized using a Polytron for 1-2 min. The protein concentration was determined by the Bradford method and aliquots were stored at −80° C. until use. For binding studies 60 mg Yttrium silicate SPA beads (Amersham) were mixed with an aliquot of membrane in binding buffer (50 mM Tris, 120 mM NaCl, 5 mM KCl, 2 mM CaCl2, 10 mM MgCl2) for 15 minutes with mixing. 50 ul of bead/membrane mixture was then added to each well of a 96 well plate, followed by 50 ul of 4 nM 3H-Vasopressin (American Radiolabeled Chemicals). For total binding measurement 100 ul of binding buffer were added to the respective wells, for non-specific binding 100 ul of 8.4 mM cold vasopressin and for compound testing 100 ul of a serial dilution of each compound in 2% DMSO. The plate was incubated Ih at room temperature, centrifuged 1 min at 1000 g and counted on a Packard Top-Count. Non-specific binding counts were subtracted from each well, and data was normalized to the maximum specific binding set at 100%. To calculate an IC 50 the curve was fitted using a non-linear regression model (XLfit), and the Ki was calculated using the Cheng-Prussoff equation.

T1 sequence (P37288 whole entry): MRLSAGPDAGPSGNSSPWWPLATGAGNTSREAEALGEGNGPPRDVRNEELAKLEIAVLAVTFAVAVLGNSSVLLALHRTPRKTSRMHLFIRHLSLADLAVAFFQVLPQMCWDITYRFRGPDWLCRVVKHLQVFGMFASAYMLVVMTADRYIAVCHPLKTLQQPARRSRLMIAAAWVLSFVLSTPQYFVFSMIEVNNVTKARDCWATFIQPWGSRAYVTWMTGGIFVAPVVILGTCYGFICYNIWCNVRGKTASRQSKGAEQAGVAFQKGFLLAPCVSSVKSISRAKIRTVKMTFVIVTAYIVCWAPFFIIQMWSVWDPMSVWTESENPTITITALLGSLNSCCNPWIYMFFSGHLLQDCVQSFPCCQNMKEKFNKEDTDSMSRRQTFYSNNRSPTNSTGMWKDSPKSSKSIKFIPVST

## O=C(c1c[nH]c2cc(Cl)ccc12)N1CCC(N2C(=O)Cc3ccccc32)CC1 [Example 1, 1-[1-(6-Chloro-1H-indole-3-carbonyl)-piperidin-4-yl]-1,3-dihydro-indol-2-one]
  Ki: 8.91 nM

## O=C(c1cn(Cc2cc(F)cc(F)c2)c2cc(Cl)ccc12)N1CCC(N2C(=O)Cc3ccccc32)CC1 [Example 2, 1-{1-[6-Chloro-1-(3,5-difluoro-benzyl)-1H-indole-3-carbonyl]-piperidin-4-yl}-1,3-dihydro-indol-2-one]
  Ki: 2.57 nM

## CNC(=O)Cn1cc(C(=O)N2CCC(N3C(=O)Cc4ccccc43)CC2)c2ccc(Cl)cc21 [Example 3, 2-{6-Chloro-3-[4-(2-oxo-2,3-dihydro-indol-1-yl)-piperidine-1-carbonyl]-indol-1-yl}-N-methyl-acetamide]
  Ki: 1.82 nM

## CN(C)C(=O)Cn1cc(C(=O)N2CCC(N3C(=O)Cc4ccccc43)CC2)c2ccc(Cl)cc21 [Example 4, 2-(6-Chloro-3-{[4-(2-oxo-2,3-dihydro-1H-indol-1-yl)piperidin-1-yl]carbonyl}-1H-indol-1-yl)-N,N-dimethylacetamide]
  Ki: 1.29 nM

## CCN(CC)C(=O)Cn1cc(C(=O)N2CCC(N3C(=O)Cc4ccccc43)CC2)c2ccc(Cl)cc21 [Example 5, 2-{6-Chloro-3-[4-(2-oxo-2,3-dihydro-indol-1-yl)-piperidine-1-carbonyl]-indol-1-yl}-N,N-diethyl-acetamide]
  Ki: 11.7 nM

## CS(=O)(=O)NCCn1cc(C(=O)N2CCC(N3C(=O)Cc4ccccc43)CC2)c2ccc(Cl)cc21 [Example 6, N-[2-(6-Chloro-3-{[4-(2-oxo-2,3-dihydro-1H-indol-1-yl)piperidin-1-yl]carbonyl}-1H-indol-1-yl)ethyl]methanesulfonamide]
  Ki: 3.16 nM

## CC(=O)NCCn1cc(C(=O)N2CCC(N3C(=O)Cc4ccccc43)CC2)c2ccc(Cl)cc21 [Example 7, N-[2-(6-Chloro-3-{[4-(2-oxo-2,3-dihydro-1H-indol-1-yl)piperidin-1-yl]carbonyl}-1H-indol-1-yl)ethyl]acetamide]
  Ki: 11.7 nM

## Cc1[nH]c2cc(Cl)ccc2c1C(=O)N1CCC(N2C(=O)Cc3ccccc32)CC1 [Example 8, 1-[1-(6-Chloro-2-methyl-1H-indole-3-carbonyl)-piperidin-4-yl]-1,3-dihydro-indol-2-one]
  Ki: 12.6 nM

## CNC(=O)Cn1cc(C(=O)N2CCC(n3c(=O)oc4ccccc43)CC2)c2ccc(Cl)cc21 [Example 10, 2-{6-Chloro-3-[4-(2-oxo-benzooxazol-3-yl)-piperidine-1-carbonyl]-indol-1-yl}-N-methyl-acetamide]
  Ki: 6.76 nM

## CN(C)C(=O)Cn1cc(C(=O)N2CCC(n3nnc4ccccc43)CC2)c2ccc(Cl)cc21 [Example 13, 2-(3-{[4-(1H-Benzotriazol-1-yl)piperidin-1-yl]carbonyl}-6-chloro-1H-indol-1-yl)-N,N-dimethylacetamide]
  Ki: 14.1 nM

## CNCCn1cc(C(=O)N2CCC(N3C(=O)Cc4ccccc43)CC2)c2ccc(Cl)cc21 [Example 14, 1-{1-[6-Chloro-1-(2-methylamino-ethyl)-1H-indole-3-carbonyl]-piperidin-4-yl}-1,3-dihydro-indol-2-one hydrochloride]
  Ki: 6.61 nM

## CN(C)CCn1cc(C(=O)N2CCC(N3C(=O)Cc4ccccc43)CC2)c2ccc(Cl)cc21 [Example 15, 1-{1-[6-Chloro-1-(2-dimethylamino-ethyl)-1H-indole-3-carbonyl]-piperidin-4-yl}-1,3-dihydro-indol-2-one]
  Ki: 2.09 nM

## CN(C)CCn1cc(C(=O)N2CCC(n3nnc4ccccc43)CC2)c2ccc(Cl)cc21 [Example 17, (4-Benzotriazol-1-yl-piperidin-1-yl)-[6-chloro-1-(2-dimethylamino-ethyl)-1H-indol-3-yl]-methanone]
  Ki: 19.5 nM

## CN1CCn2c(c(C(=O)N3CCC(n4nnc5ccccc54)CC3)c3ccc(Cl)cc32)C1 [Example 18, (4-Benzotriazol-1-yl-piperidin-1-yl)-(7-chloro-2-methyl-1,2,3,4-tetrahydro-pyrazino[1,2-a]indol-10-yl)-methanone]
  Ki: 20.9 nM
